Drawing on patent publication US12466822B2, “Heterocyclic compounds as immunomodulators” (Incyte Corporation, priority 2016, dated 2025), this text covers IC50 for twelve compounds.

pIC50: −log10 of the molar value.

In the experiment the target is T1, PD-1/PD-L1 protein/protein interaction (recombinant human PD-L1 protein (19-238), recombinant human PD-1 protein (25-167)) (Homo sapiens, UniProt Q9NZQ7).
T1 construct: Recombinant human PD-L1 protein (19-238) with a His-tag at the C-terminus; purchased AcroBiosystems PD1-H5229 (PD-L1-His); PD1-H5257 (PD-1-Fc)
T1 sequence (Q9NZQ7 19-238): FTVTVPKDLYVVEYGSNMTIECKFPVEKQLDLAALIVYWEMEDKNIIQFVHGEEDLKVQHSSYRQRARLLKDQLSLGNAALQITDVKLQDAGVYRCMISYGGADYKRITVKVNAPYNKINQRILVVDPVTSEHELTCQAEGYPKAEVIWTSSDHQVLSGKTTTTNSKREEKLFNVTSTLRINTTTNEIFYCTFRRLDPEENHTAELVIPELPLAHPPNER
The experiment is described as follows: PD-1/PD-L1 Homogeneous Time-Resolved Fluorescence (HTRF) Binding Assay. To be noted: 25° C., PBS buffer (pH 7.4), 40 minutes preincubation with inhibitors. In outline:
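HTRF read-out (665/620 nm) after 60 min at 25 °C with 1 nM Eu anti-human IgG and 20 nM APC anti-His. Beforehand, inhibitors were preincubated 40 min with Fc-PD-1 (25-167, […] as listed) and His-PD-L1 (19-238, 10 nM) in PBS pH 7.4 with Tween-20, BSA, 1% DMSO; IC50 from log-concentration curve.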
Usually pIC50 stands for the negative decadic logarithm of the IC50, by convention in mol/L. In the case of `Cc1c(Nc2nccc3cc(CN4CC(C(=O)O)C4)cnc23)cccc1-c1cccc(-c2nc3c(s2)CN(C(=O)CN(C)C)C3)c1C` [Example 88, 1-((8-((3′-(5-(dimethylglycyl)-5,6-dihydro-4H-pyrrolo[3,4-d]thiazol-2-yl)-2,2′-dimethyl-[1,1′-biphenyl]-3-yl)amino)-1,7-naphthyridin-3-yl)methyl)azetidine-3-carboxylic acid], the negative-log IC50 (pIC50) is no less than 8.00.
For the compound `Cc1c(-c2nc3c(s2)CN(C(=O)CN(C)C)C3)cccc1-c1cccc(Nc2nccc3cc(CN4CC[C@@H](C(=O)O)C4)cnc23)c1Cl` [Example 89, (R)-1-((8-((2-chloro-3′-(5-(dimethylglycyl)-5,6-dihydro-4H-pyrrolo[3,4-d]thiazol-2-yl)-2′-methyl-[1,1′-biphenyl]-3-yl)amino)-1,7-naphthyridin-3-yl)methyl)pyrrolidine-3-carboxylic acid], the pIC50 is no less than 8.00.
Take `CCN(C)CC(=O)N1Cc2nc(-c3cccc(-c4cccc(Nc5nccc6cc(CN7CC[C@@H](C(=O)O)C7)cnc56)c4Cl)c3C)sc2C1` [Example 90, (R)-1-((8-((2-chloro-3′-(5-(N-ethyl-N-methylglycyl)-5,6-dihydro-4H-pyrrolo[3,4-d]thiazol-2-yl)-2′-methyl-[1,1′-biphenyl]-3-yl)amino)-1,7-naphthyridin-3-yl)methyl)pyrrolidine-3-carboxylic acid]: the pIC50 is no less than 8.00.
As for `Cc1c(-c2nc3c(s2)CN(C(=O)CN(C)C)C3)cccc1-c1cccc(Nc2nccc3cc(CN4CC[C@H](CC(=O)O)C4)cnc23)c1Cl` [Example 91, (R)-2-(1-((8-((2-chloro-3′-(5-(dimethylglycyl)-5,6-dihydro-4H-pyrrolo[3,4-d]thiazol-2-yl)-2′-methyl-[1,1′-biphenyl]-3-yl)amino)-1,7-naphthyridin-3-yl)methyl)pyrrolidin-3-yl)acetic acid], the figure is no less than 8.00.
For `Cc1c(-c2nc3c(s2)CN(C(=O)CN(C)C)C3)cccc1-c1cccc(Nc2nccc3cc(CN4CC5CC4CC5C(=O)O)cnc23)c1Cl` (stereo not drawn) [Example 92, 2-((8-((2-chloro-3′-(5-(dimethylglycyl)-5,6-dihydro-4H-pyrrolo[3,4-d]thiazol-2-yl)-2′-methyl-[1,1′-biphenyl]-3-yl)amino)-1,7-naphthyridin-3-yl)methyl)-2-azabicyclo[2.2.1]heptane-5-carboxylic acid], the pIC50 was no less than 8.00.
Under `CCN(C)CC(=O)N1Cc2nc(-c3cccc(-c4cccc(Nc5nccc6cc(CN7CC[C@H](CC(=O)O)C7)cnc56)c4Cl)c3C)sc2C1` [Example 93, (R)-2-(1-((8-(2-chloro-3′-(5-(2-(ethyl(methyl)amino)acetyl)-5,6-dihydro-4H-pyrrolo[3,4-d]thiazol-2-yl)-2′-methylbiphenyl-3-ylamino)-1,7-naphthyridin-3-yl)methyl)pyrrolidin-3-yl)acetic acid] stands 7.00 to 8.00; under `CCN(C)CC(=O)N1Cc2nc(-c3cccc(-c4cccc(Nc5nccc6cc(CN7CC8CC7CC8C(=O)O)cnc56)c4Cl)c3C)sc2C1` (stereo not drawn) [Example 94, 2-((8-(2-chloro-3′-(5-(2-(ethyl(methyl)amino)acetyl)-5,6-dihydro-4H-pyrrolo[3,4-d]thiazol-2-yl)-2′-methylbiphenyl-3-ylamino)-1,7-naphthyridin-3-yl)methyl)-2-azabicyclo[2.2.1]heptane-5-carboxylic acid], no less than 8.00; under `Cc1c(-c2nc3c(s2)CN(C(=O)CN2CC[C@@H](O)C2)C3)cccc1-c1cccc(Nc2nccc3cc(CN4CC[C@@H](C(=O)O)C4)cnc23)c1Cl` [Example 95, (R)-1-((8-((2-chloro-3′-(5-(2-((R)-3-hydroxypyrrolidin-1-yl)acetyl)-5,6-dihydro-4H-pyrrolo[3,4-d]thiazol-2-yl)-2′-methyl-[1,1′-biphenyl]-3-yl)amino)-1,7-naphthyridin-3-yl)methyl)pyrrolidine-3-carboxylic acid], no less than 8.00.
As for `Cc1c(-c2nc3c(s2)CN(C(=O)CN(C)CCO)C3)cccc1-c1cccc(Nc2nccc3cc(CN4CC[C@@H](C(=O)O)C4)cnc23)c1Cl` [Example 96, (R)-1-((8-((2-chloro-3′-(5-(N-(2-hydroxyethyl)-N-methylglycyl)-5,6-dihydro-4H-pyrrolo[3,4-d]thiazol-2-yl)-2′-methyl-[1,1′-biphenyl]-3-yl)amino)-1,7-naphthyridin-3-yl)methyl)pyrrolidine-3-carboxylic acid], the figure is no less than 8.00.
As for `Cc1c(-c2nc3c(s2)CN(C(=O)CN2CC[C@H](O)C2)C3)cccc1-c1cccc(Nc2nccc3cc(CN4CC[C@@H](C(=O)O)C4)cnc23)c1Cl` [Example 97, (R)-1-((8-((2-chloro-3′-(5-(2-((S)-3-hydroxypyrrolidin-1-yl)acetyl)-5,6-dihydro-4H-pyrrolo[3,4-d]thiazol-2-yl)-2′-methyl-[1,1′-biphenyl]-3-yl)amino)-1,7-naphthyridin-3-yl)methyl)pyrrolidine-3-carboxylic acid], the figure is no less than 8.00; as for `Cc1c(-c2nc3c(s2)CN(C(=O)CN2CC(O)C2)C3)cccc1-c1cccc(Nc2nccc3cc(CN4CC[C@@H](C(=O)O)C4)cnc23)c1Cl` [Example 98, (R)-1-((8-((2-chloro-3′-(5-(2-(3-hydroxyazetidin-1-yl)acetyl)-5,6-dihydro-4H-pyrrolo[3,4-d]thiazol-2-yl)-2′-methyl-[1,1′-biphenyl]-3-yl)amino)-1,7-naphthyridin-3-yl)methyl)pyrrolidine-3-carboxylic acid], no less than 8.00.
For the compound `Cc1c(NC(=O)c2nc3c(n2C)CCN(C[C@H]2CC[C@@H](C(=O)O)CC2)C3)cccc1-c1cccc(Nc2nccc3cc(CN4CC[C@@H](O)C4)cnc23)c1C` [Example 99, Cis-4-((2-(3′-(3-(((R)-3-hydroxypyrrolidin-1-yl)methyl)-1,7-naphthyridin-8-ylamino)-2,2′-dimethylbiphenyl-3-ylcarbamoyl)-1-methyl-6,7-dihydro-1H-imidazo[4,5-c]pyridin-5(4H)-yl)methyl)cyclohexanecarboxylic acid], the negative-log IC50 (pIC50) is no less than 8.00.
